Test results: PMC9435431, “Novel chemical entities inhibiting Mycobacterium tuberculosis growth identified by phenotypic high-throughput screening” (Scientific Reports, 2022)
In brackets after ≈: the same amount, converted by molar mass. Read-outs that look alike come from different tables or passages of the source.

Tests used:
[1] = in vitro; assay type: in vitro ADME, human; details: for microsomal clearance / stability (in words): human microsomes; for CLint scaled at 0.5 µM: human, microsomes, pH 7.4, human Clint
Procedure: Compounds (0.5 µM) were incubated with 0.25 mg/mL liver microsomal proteins at pH 7.4 at 37 °C. Reactions were initiated with […] and samples taken at 0, 5, 10, 15, 20 and 30 min. The reaction was stopped by addition of 95% ACN/5% MeOH containing an internal standard. Samples were combined in compound groups of six pre-sorted by mono molecular weight and analyzed by LC/MS/MS. The peak area ratios (analyte peak area/IS peak area) were converted to % remaining using the area ratio at time 0 as 100%. The. half-life (T ½) and intrinsic clearance (mCLint) were calculated.

[2] = tested on: wild-type M. tuberculosis; test: microbe, parasite or virus in culture; assay type: cell-based, Mycobacterium tuberculosis; details: for MIC: Mycobacterium tuberculosis
[3] = Table 5, read-out: Wild-type MIC

| Compound | microsomal clearance / stability (in words) [1] | CLint scaled at 0.5 µM [1] [L/h/kg] | MIC ([2]; 120 h, read-out: MIC) [µM] | MIC ([2]; read-out: MIC) [µM] | anti-tubercular activity (in words) [2] | MIC [2, 3] [µM] |
| --- | --- | --- | --- | --- | --- | --- |
| O=C(NCCc1cccc(C(F)(F)F)c1)C1(c2ccccc2)CCC1 [PCB-7, 1-phenyl-N-(3-(trifluoromethyl)phenethyl)cyclobutane-1-carboxamide] | increased clearance | 270 | 3.7 ± 2.7 (≈ 1.29 µg/mL) | 3.7 (≈ 1.29 µg/mL) |  |  |
| O=C(NCCc1cccc(Br)c1)C1(c2ccc(Cl)cc2Cl)CCC1 [PCB-18, N-(3-bromophenethyl)-1-(2,4-dichlorophenyl)cyclobutane-1-carboxamide] | very low stability | 1690 | 13 ± 5 (≈ 5.55 µg/mL) |  | low antitubercular activity |  |
| O=C(NCCc1cccc(Br)c1)C1(c2ccccc2Cl)CCC1 [PCB-17, N-(3-bromophenethyl)-1-(2-chlorophenyl)cyclobutane-1-carboxamide] | clearances increased | 673 | 1.8 ± 0.7 (≈ 0.707 µg/mL) |  | increase in activity | 1.8 (≈ 0.707 µg/mL) |
| O=C(NCCc1ccc(Br)cc1)C1(c2ccccc2)CCC1 [PCB-6, N-(4-bromophenethyl)-1-phenylcyclobutane-1-carboxamide] |  | 35.6 | 5.4 ± 0.3 (≈ 1.93 µg/mL) | 5.4 (≈ 1.93 µg/mL) |  |  |
| O=C(NCCc1cccc(Br)c1)C1(c2ccc(Cl)cc2)CCC1 [PCB-15, N-(3-bromophenethyl)-1-(4-chlorophenyl)cyclobutane-1-carboxamide] | clearances increased | 559 | 9.7 ± 6.7 (≈ 3.81 µg/mL) |  | slight reduction |  |
| O=C(NCC(O)c1ccc2c(c1)OCO2)C1(c2ccccc2)CCC1 (stereo not drawn) [PCB-11, N-(2-(benzo[d][1,3]dioxol-5-yl)-2-hydroxyethyl)-1-phenylcyclobutane-1-carboxamide] | lower clearance | 9.66 | > 20 | > 20 |  |  |
| COc1cc(CCNC(=O)C2(c3ccccc3)CCC2)ccc1O [PCB-3, N-(4-hydroxy-3-methoxyphenethyl)-1-phenylcyclobutane-1-carboxamide] | clearance was improved | 12.5 | > 20 | > 20 |  |  |
| COc1ccc(CCNC(=O)C2(c3ccccc3Cl)CCC2)cc1-c1ccccc1 [PCB-27, 1-(2-chlorophenyl)-N-(2-(6-methoxy-[1,1'-biphenyl]-3-yl)ethyl)cyclobutane-1-carboxamide] | much higher clearance | 1680 | 3.6 ± 1.3 (≈ 1.51 µg/mL) |  |  |  |
| O=C(NCCc1cccc(Br)c1)C1(c2ccccc2C(F)(F)F)CCC1 [PCB-22, N-(3-bromophenethyl)-1-(2-(trifluoromethyl)phenyl)cyclobutane-1-carboxamide] |  | 975 | 5.7 ± 2.8 (≈ 2.43 µg/mL) |  |  |  |
| O=C(NCCc1ccc2c(c1)OCO2)C1(c2ccccc2)CCC1 [PCB-4, N-(2-(benzo[d][1,3]dioxol-5-yl)ethyl)-1-phenylcyclobutane-1-carboxamide] | intermediate clearance | 52.1 | 12 ± 2.6 (≈ 3.88 µg/mL) |  | retained anti-tubercular activity |  |
| O=C(NCCc1cccc(Br)c1)C1(c2ccccc2F)CCC1 [PCB-20, N-(3-bromophenethyl)-1-(2-fluorophenyl)cyclobutane-1-carboxamide] | very poor microsomal stability | 263 | 5.5 ± 2.1 (≈ 2.07 µg/mL) |  |  |  |
| O=C(NCCc1cc(Br)ccn1)C1(c2ccccc2)CCC1 [PCB-8, N-(2-(4-bromopyridin-2-yl)ethyl)-1-phenylcyclobutane-1-carboxamide] | improved clearance | 69.7 | > 20 | > 20 |  |  |
| Cc1ccccc1C1(C(=O)NCCc2cccc(Br)c2)CCC1 [PCB-23, N-(3-bromophenethyl)-1-(o-tolyl)cyclobutane-1-carboxamide] |  | 391 | 1.3 ± 0.5 (≈ 0.484 µg/mL) | 1.3 (≈ 0.484 µg/mL) |  | 1.3 (≈ 0.484 µg/mL) |
| O=C(NCCc1cccc(Br)c1)C1(c2ccccc2)COC1 [PCB-25, N-(3-bromophenethyl)-3-phenyloxetane-3-carboxamide] | some improvement in clearance | 20 | 12 ± 2.8 (≈ 4.32 µg/mL) | 12 (≈ 4.32 µg/mL) |  |  |
| COc1ccc(C2CCN(CC3CCCCC3)CC2F)cc1.O=C(O)C(F)(F)F (stereo not drawn) [Molecule 4PP-53, 1-(Cyclohexylmethyl)-3-fluoro-4-(4-methoxyphenyl)piperidine; 2,2,2-trifluoroacetic acid] |  |  | > 20 |  | not tolerated |  |
| FC1CN(CC2CCCCC2)CCC1c1ccc(Cl)cc1.O=C(O)C(F)(F)F (stereo not drawn) [Molecule 4PP-52, 4-(4-Chlorophenyl)-1-(cyclohexylmethyl)-3-fluoro-piperidine; 2,2,2-trifluoroacetic acid] |  |  | > 20 |  | not tolerated |  |
| O=C(NCCc1cccc(C(F)(F)F)c1)C1(c2ccccc2)COC1 [PCB-28, 3-phenyl-N-(3-(trifluoromethyl)phenethyl)oxetane-3-carboxamide] | improved clearance | 13.9 | 9.1 ± 0.8 (≈ 3.18 µg/mL) |  | loss in activity |  |
